Results taken from PMC6778101 (Nature Communications, 2019).
Entries after “also recorded” stand apart in the source; their conditions may differ. Where two headings read alike, the source gives them in different places. Peptide text beside a SMILES is read from it.

Experiments:
A. baumannii ATCC 17978 = test: Laboratory evolution of resistance, MIC fold change of adapted lines; format: cell-based; conditions: Acinetobacter baumannii ATCC 17978; parallel line 1 of 10
From the text: (§1) The tested pathogens initially sensitive to the AMPs and the antibiotics included Escherichia coli (ATCC® 25922™) (abbreviated as E. coli ATCC 25922), Salmonella enterica subsp. enterica serovar Typhimurium LT2 (abbreviated as S. enterica LT2), Klebsiella pneumoniae subsp. pneumoniae (Schroeter) Trevisan (ATCC® 10031™) (abbreviated as K. pneumoniae ATCC 10031) and Acinetobacter baumannii Bouvet and Grimont (ATCC® 17978™) (abbreviated as A. baumannii ATCC 17978).
(§2) The evolutionary protocol was designed to avoid population extinction and to ensure that populations with the highest level of resistance were propagated further. Starting with a subinhibitory drug concentration (Supplementary Data 8), resulting in ~50% growth inhibition, 10 parallel populations per drug were allowed to grow in Minimal Salts medium for 72 h and 300 r.p.m. E. coli K-12 BW25113 and E. coli mutD5 populations were incubated at 30 °C, while E. coli ATCC 25922, S. enterica LT2, K. pneumonia ATCC 10031, and A. baumannii ATCC 17978 were incubated at 37 °C. […] Prior to each transfer, cell growth was monitored by measuring the optical density at 600 nm (OD600 value, Biotek Synergy 2 microplate reader). Only populations with the highest drug concentration (and reaching OD600 > 0.2) were selected for further evolution. A chess-board layout was used on the plate to monitor potential cross-contamination events. […] E. coli mutD5 was adapted to TPII, also in 10 parallel evolving populations.
(§3) MICs were determined using a standard serial broth dilution technique. Briefly, 11-step serial dilutions were prepared in 96-well microtiter plates with three replicates per strain and antimicrobial compound. Each experiment was repeated at least twice. […] Cell growth was monitored by measuring the optical density (OD600 value, Biotek Synergy 2 microplate reader was used for this purpose). […] Relative MIC was calculated as follows: MICrelative = MICevolved/MICcontrol.

E. coli ATCC 25922 = test: as above; format: cell-based; conditions: Escherichia coli ATCC 25922; parallel line 1 of 10
From the text: as §1, §2, §3

K. pneumoniae ATCC 10031 = test: as above; format: cell-based; conditions: Klebsiella pneumoniae ATCC 10031; parallel line 1 of 10
From the text: as §1, §2, §3

[1] = system: 38 AMP-adapted E. coli K-12 BW25113 lines; test: Cross-resistance of AMP-resistant lines (relative MIC); format: cell-based, Escherichia coli; conditions: for Relative MIC (MICevolved / MICcontrol): >1 cross-resistance, <1 collateral sensitivity
From the text: Next, we have explored whether laboratory evolved AMP resistance provide any cross-resistance to AMPs which appear to be less prone to resistance. […] We have measured the changes in susceptibilities of these strains to the AMPs (PLEU, PGLA, R8, IND, TPII, and CP1) towards which resistance evolution was limited, as well as to the human peptide LL37. LL37 is a cathelicidin-derived AMP present throughout the human body with critical defensive roles. Cross-resistance was defined as a minimum of twofold increase in resistance level.
(§4) MICs were determined using a standard serial broth dilution technique. Briefly, 11-step serial dilutions were prepared in 96-well microtiter plates with three replicates per strain and antimicrobial compound. Each experiment was repeated at least twice. 5 × 10^5 cells/mL were inoculated into each well, and the plates were incubated at 30 °C in case of E. coli K-12 BW25113, and its antibiotic and AMP-adapted lines, or 37 °C in case of the other bacterial species. Plates were shaken at 300 r.p.m. during incubation for 24 and 18 h, respectively. Cell growth was monitored by measuring the optical density (OD600 value, Biotek Synergy 2 microplate reader was used for this purpose). […] Relative MIC was calculated as follows: MICrelative = MICevolved/MICcontrol.

E.coli K-12 BW25113 = format: cell-based, Escherichia coli; conditions: for MIC (freshly prepared AMP): plates inoculated immediately; for MIC (pre-incubated AMP): plates pre-incubated 72 hours before inoculation
Experimental: as §4
Supplementary Table 7- Effect of incubation time on the minimum inhibitory concentration (MIC) of AMPs. We tested whether the prolonged incubation time can affect the MIC of AMPs. To test this, two sets of AMP containing MIC plates were prepared in parallel. The first set was immediately inoculated with E.coli K-12 BW25113, while the second set was pre-incubated 72 hours before inoculation with the […]
observed in the MIC between freshly prepared and pre-incubated plates. […]

[2] = time allowed for bacterial growth 24 hours
[3] = time allowed for bacterial growth 48 hours
[4] = time allowed for bacterial growth 72 hours

CC[C@H](C)[C@@H]1NC(=O)CNC(=O)[C@H](CCCNC(=N)N)NC(=O)[C@H](Cc2ccc(O)cc2)NC(=O)[C@@H]2CSSC[C@H](NC1=O)C(=O)N[C@@H](Cc1ccc(O)cc1)C(=O)N[C@@H](CCCNC(=N)N)C(=O)N[C@@H](CCCCN)C(=O)N[C@H](C(=O)N[C@@H](CCCNC(=N)N)C(N)=O)CSSC[C@H](NC(=O)[C@H](Cc1c[nH]c3ccccc13)NC(=O)[C@@H](N)CCCNC(=N)N)C(=O)N[C@@H](Cc1ccccc1)C(=O)N[C@@H](CCCNC(=N)N)C(=O)N[C@@H](C(C)C)C(=O)N2 [TPII, tachyplesin II] (HELM PEPTIDE1{R.W.C.F.R.V.C.Y.R.G.I.C.Y.R.K.C.R.[am]}$PEPTIDE1,PEPTIDE1,3:R3-16:R3|PEPTIDE1,PEPTIDE1,7:R3-12:R3$$$V2.0; N-terminus and C-terminus assumed; bridges inferred)
MIC fold change following 20 transfers (A. baumannii ATCC 17978): 4.3 fold
MIC fold change following 20 transfers (E. coli ATCC 25922): 4.8 fold
MIC fold change following 20 transfers (K. pneumoniae ATCC 10031): 5.6 fold
Fold change in minimum inhibitory concentration (MIC) ([1]; AMP-adapted line BAC5_3): 1
Relative MIC (MICevolved / MICcontrol) ([1]; AMP-adapted line BAC5_3): 1
Fold change in minimum inhibitory concentration (MIC) ([1]; AMP-adapted line BAC5_5): 1
Relative MIC (MICevolved / MICcontrol) ([1]; AMP-adapted line BAC5_5): 1
Fold change in minimum inhibitory concentration (MIC) ([1]; AMP-adapted line BAC5_7): 1.1
Relative MIC (MICevolved / MICcontrol) ([1]; AMP-adapted line BAC5_7): 1.1
Fold change in minimum inhibitory concentration (MIC) ([1]; AMP-adapted line BAC5_10): 1.1
Relative MIC (MICevolved / MICcontrol) ([1]; AMP-adapted line BAC5_10): 1.1
Fold change in minimum inhibitory concentration (MIC) ([1]; AMP-adapted line CAP18_2): 1.1
Relative MIC (MICevolved / MICcontrol) ([1]; AMP-adapted line CAP18_2): 1.1
Fold change in minimum inhibitory concentration (MIC) ([1]; AMP-adapted line CAP18_5): 1
Relative MIC (MICevolved / MICcontrol) ([1]; AMP-adapted line CAP18_5): 1
Fold change in minimum inhibitory concentration (MIC) ([1]; AMP-adapted line CAP18_6): 1
Relative MIC (MICevolved / MICcontrol) ([1]; AMP-adapted line CAP18_6): 1
Fold change in minimum inhibitory concentration (MIC) ([1]; AMP-adapted line CAP18_8): 1.1
Relative MIC (MICevolved / MICcontrol) ([1]; AMP-adapted line CAP18_8): 1.1
Fold change in minimum inhibitory concentration (MIC) ([1]; AMP-adapted line CAP18_10): 1
Relative MIC (MICevolved / MICcontrol) ([1]; AMP-adapted line CAP18_10): 1
Fold change in minimum inhibitory concentration (MIC) ([1]; AMP-adapted line HBD3_3): 1.2
Relative MIC (MICevolved / MICcontrol) ([1]; AMP-adapted line HBD3_3): 1.2
Fold change in minimum inhibitory concentration (MIC) ([1]; AMP-adapted line HBD3_6): 1.2
Relative MIC (MICevolved / MICcontrol) ([1]; AMP-adapted line HBD3_6): 1.2
Fold change in minimum inhibitory concentration (MIC) ([1]; AMP-adapted line HBD3_8): 1.2
Relative MIC (MICevolved / MICcontrol) ([1]; AMP-adapted line HBD3_8): 1.2
Fold change in minimum inhibitory concentration (MIC) ([1]; AMP-adapted line HBD3_10): 1.2
Relative MIC (MICevolved / MICcontrol) ([1]; AMP-adapted line HBD3_10): 1.2
Fold change in minimum inhibitory concentration (MIC) ([1]; AMP-adapted line LL37_1): 1.1
Relative MIC (MICevolved / MICcontrol) ([1]; AMP-adapted line LL37_1): 1.1
Fold change in minimum inhibitory concentration (MIC) ([1]; AMP-adapted line LL37_3): 1.1
Relative MIC (MICevolved / MICcontrol) ([1]; AMP-adapted line LL37_3): 1.1
Fold change in minimum inhibitory concentration (MIC) ([1]; AMP-adapted line LL37_6): 1
Relative MIC (MICevolved / MICcontrol) ([1]; AMP-adapted line LL37_6): 1
Fold change in minimum inhibitory concentration (MIC) ([1]; AMP-adapted line LL37_7): 1
Relative MIC (MICevolved / MICcontrol) ([1]; AMP-adapted line LL37_7): 1
Fold change in minimum inhibitory concentration (MIC) ([1]; AMP-adapted line LL37_10): 1
Relative MIC (MICevolved / MICcontrol) ([1]; AMP-adapted line LL37_10): 1
Fold change in minimum inhibitory concentration (MIC) ([1]; AMP-adapted line PEX_1): 1.1
Relative MIC (MICevolved / MICcontrol) ([1]; AMP-adapted line PEX_1): 1.1
Fold change in minimum inhibitory concentration (MIC) ([1]; AMP-adapted line PEX_4): 1.2
Relative MIC (MICevolved / MICcontrol) ([1]; AMP-adapted line PEX_4): 1.2
Fold change in minimum inhibitory concentration (MIC) ([1]; AMP-adapted line PEX_5): 1.1
Relative MIC (MICevolved / MICcontrol) ([1]; AMP-adapted line PEX_5): 1.1
Fold change in minimum inhibitory concentration (MIC) ([1]; AMP-adapted line PEX_6): 1
Relative MIC (MICevolved / MICcontrol) ([1]; AMP-adapted line PEX_6): 1
Fold change in minimum inhibitory concentration (MIC) ([1]; AMP-adapted line PEX_7): 1
Relative MIC (MICevolved / MICcontrol) ([1]; AMP-adapted line PEX_7): 1
Fold change in minimum inhibitory concentration (MIC) ([1]; AMP-adapted line PR39_1): 1
Relative MIC (MICevolved / MICcontrol) ([1]; AMP-adapted line PR39_1): 1
Fold change in minimum inhibitory concentration (MIC) ([1]; AMP-adapted line PR39_2): 0.9
Relative MIC (MICevolved / MICcontrol) ([1]; AMP-adapted line PR39_2): 0.9
Fold change in minimum inhibitory concentration (MIC) ([1]; AMP-adapted line PR39_5): 0.9
Relative MIC (MICevolved / MICcontrol) ([1]; AMP-adapted line PR39_5): 0.9
Fold change in minimum inhibitory concentration (MIC) ([1]; AMP-adapted line PR39_7): 0.9
Relative MIC (MICevolved / MICcontrol) ([1]; AMP-adapted line PR39_7): 0.9
Fold change in minimum inhibitory concentration (MIC) ([1]; AMP-adapted line PR39_10): 0.9
Relative MIC (MICevolved / MICcontrol) ([1]; AMP-adapted line PR39_10): 0.9
Fold change in minimum inhibitory concentration (MIC) ([1]; AMP-adapted line PROA_2): 1.1
Relative MIC (MICevolved / MICcontrol) ([1]; AMP-adapted line PROA_2): 1.1
Fold change in minimum inhibitory concentration (MIC) ([1]; AMP-adapted line PROA_3): 0.8
Relative MIC (MICevolved / MICcontrol) ([1]; AMP-adapted line PROA_3): 0.8
Fold change in minimum inhibitory concentration (MIC) ([1]; AMP-adapted line PROA_7): 1
Relative MIC (MICevolved / MICcontrol) ([1]; AMP-adapted line PROA_7): 1
Fold change in minimum inhibitory concentration (MIC) ([1]; AMP-adapted line PROA_8): 1
Relative MIC (MICevolved / MICcontrol) ([1]; AMP-adapted line PROA_8): 1
Fold change in minimum inhibitory concentration (MIC) ([1]; AMP-adapted line PROA_9): 1.1
Relative MIC (MICevolved / MICcontrol) ([1]; AMP-adapted line PROA_9): 1.1
Fold change in minimum inhibitory concentration (MIC) ([1]; AMP-adapted line PXB_2): 1.1
Relative MIC (MICevolved / MICcontrol) ([1]; AMP-adapted line PXB_2): 1.1
Fold change in minimum inhibitory concentration (MIC) ([1]; AMP-adapted line PXB_5): 1
Relative MIC (MICevolved / MICcontrol) ([1]; AMP-adapted line PXB_5): 1
Fold change in minimum inhibitory concentration (MIC) ([1]; AMP-adapted line PXB_6): 1.1
Relative MIC (MICevolved / MICcontrol) ([1]; AMP-adapted line PXB_6): 1.1
Fold change in minimum inhibitory concentration (MIC) ([1]; AMP-adapted line PXB_8): 1
Relative MIC (MICevolved / MICcontrol) ([1]; AMP-adapted line PXB_8): 1
Fold change in minimum inhibitory concentration (MIC) ([1]; AMP-adapted line PXB_10): 1.1
Relative MIC (MICevolved / MICcontrol) ([1]; AMP-adapted line PXB_10): 1.1
cross-resistance of the 38 AMP-resistant lines to the AMP (in words) ([1]; cross-resistance = minimum of twofold increase in resistance level): none of the 38 AMP-resistant lines displayed cross-resistance; also recorded: no cross-resistance
MIC (freshly prepared AMP) (E.coli K-12 BW25113; [2]): 5 µg/mL
MIC (freshly prepared AMP) (E.coli K-12 BW25113; [3]): 5 µg/mL
MIC (freshly prepared AMP) (E.coli K-12 BW25113; [4]): 5 µg/mL
MIC (pre-incubated AMP) (E.coli K-12 BW25113; [2]): 6 µg/mL
MIC (pre-incubated AMP) (E.coli K-12 BW25113; [3]): 6 µg/mL
MIC (pre-incubated AMP) (E.coli K-12 BW25113; [4]): 6 µg/mL
